Substitutions are numbered along the chain they refer to.
Legend:
AcerOR11 [1] = molecular target: T1, AcerOR11 (Apis cerana, UniProt A0A3G2FPT9); experiment: transcuticular GCaMP6m calcium imaging of Drosophila antenna, dose-response; format: cell-based; details: agonist; airborne odorant, unit is dose loaded on filter paper, not a concentration; 1 s stimulus; solvent 2-propanol
T1 construct: full-length ORF, Drosophila codon-optimized synthetic gene (pUAST.attB, locus 51C); expressed in Drosophila at1 OSNs in place of DmelOR67d, with endogenous fly Orco and GCaMP6m; same length as the other OR11
T1 sequence (A0A3G2FPT9 1-394): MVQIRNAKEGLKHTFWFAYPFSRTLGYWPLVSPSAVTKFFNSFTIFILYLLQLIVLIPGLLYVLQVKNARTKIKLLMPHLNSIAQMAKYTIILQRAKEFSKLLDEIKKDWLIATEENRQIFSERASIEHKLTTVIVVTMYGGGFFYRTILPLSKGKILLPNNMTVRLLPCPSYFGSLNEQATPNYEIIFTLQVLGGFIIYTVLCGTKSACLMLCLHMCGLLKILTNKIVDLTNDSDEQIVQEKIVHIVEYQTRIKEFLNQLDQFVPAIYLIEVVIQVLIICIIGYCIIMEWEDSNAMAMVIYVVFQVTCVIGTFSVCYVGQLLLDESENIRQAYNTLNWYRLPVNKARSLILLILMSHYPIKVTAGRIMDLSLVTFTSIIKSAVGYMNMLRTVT

AmelOR11 = molecular target: T2, AmelOR11 (Apis mellifera, UniProt A0A7M6UWX0); experiment: as above; format: cell-based; details: agonist; airborne odorant, unit is dose loaded on filter paper, not a concentration; 1 s stimulus; solvent 2-propanol
T2 construct: gene Or11; full-length ORF, Drosophila codon-optimized synthetic gene (pUAST.attB, locus 51C); expressed in Drosophila at1 OSNs in place of DmelOR67d, with endogenous fly Orco and GCaMP6m; same length as the other OR11
T2 sequence (A0A7M6UWX0 1-394): T1 sequence (A0A3G2FPT9 1-394) with V36F, I47T, L50F, Q52E, A69P, I112L, I228V, V229M, I239V, N345K

AdorOR11 = system: T3, AdorOR11; experiment: as above; format: cell-based, Apis dorsata; details: agonist; airborne odorant, unit is dose loaded on filter paper, not a concentration; 1 s stimulus; solvent 2-propanol
T3 construct: gene OR11; full-length ORF, Drosophila codon-optimized synthetic gene (pUAST.attB, locus 51C); expressed in Drosophila at1 OSNs in place of DmelOR67d, with endogenous fly Orco and GCaMP6m; same length as the other OR11

AcerOR11 [2] = molecular target: T1, AcerOR11; experiment: transcuticular GCaMP6m calcium imaging of Drosophila antenna, single-dose screen; format: cell-based; details: agonist; 100 μg on filter paper; 1 s stimulus; solvent 2-propanol
AflorOR11 = system: T4, AflorOR11; experiment: transcuticular GCaMP6m calcium imaging of Drosophila antenna, dose-response; format: cell-based, Apis florea; details: agonist; airborne odorant, unit is dose loaded on filter paper, not a concentration; 1 s stimulus; solvent 2-propanol
T4 construct: gene OR11; full-length ORF, Drosophila codon-optimized synthetic gene (pUAST.attB, locus 51C); expressed in Drosophila at1 OSNs in place of DmelOR67d, with endogenous fly Orco and GCaMP6m; same length as the other OR11

| EC50 (AcerOR11 [1]) [µg] | EC50 (AmelOR11) [µg] | EC50 (AdorOR11) [µg] | EC50 (AflorOR11) [µg] | SMILES | calcium response (ΔF/F0) (AcerOR11 [2]) |
| --- | --- | --- | --- | --- | --- |
| 208.5 ± 39.57 | 84.26 ± 15.52 | 139.3 ± 28.55 | – | CCCC(=O)C(=O)O [2-oxovaleric acid] | – |
| – | – | – | – | CC(=O)CCC=C(C)C [6-methyl-5-hepten-2-one] | AcerOR11 responded to a third secondary ligand: 6-methyl-5-hepten-2-one |
| 174.8 ± 26.05 | 160.5 ± 28.46 | 173.4 ± 22.22 | 175.8 ± 29.59 | CC(=O)CCCCC/C=C/C(=O)O [9-ODA, 9-oxo-(E)-2-decenoic acid] | – |
| 105.8 ± 9.62 | 239.2 ± 72.06 | 124.2 ± 9.58 | – | CCC/C=C/C(=O)O [trans-2-hexenoic acid] | – |
